Data set [1] relates to calf intervertebral discs. In words: Hydration change / fluid flux of disc regions (soaking, creep loading, resoaking). Also noted: species or system calf (4 month-old bovine). The conditions noted are these: for % increase by Genipin, NP: flux into and out of the central nucleus region vs control flux. From the text: By measuring the change in hydration of different regions of the intervertebral disc (nucleus pulposus, inner annulus, and outer annulus fibrosus) prior to and after periods of soaking, sustained compressive loading, and resoaking, the fluid flux to and from different regions can be determined. By comparing these measurements between control discs and discs treated with crosslinking reagents known to have minimal cytotoxicity, we see the effect of crosslinking treatment on fluid flux and permeability. A total of 24 calf (4 month-old bovine) intervertebral discs were used for this study. Water content of three different areas of the […] tissue were tested-the nucleus pulposus, inner annulus fibrosus and outer annulus fibrosus. Hydration change was determined by weighing the specimen using a micro-balance (sensitivity: 0.1 mg). Water content (M) was calculated as: M=(Wet Weight-Dry Weight)/Wet Weight=g H2O/g Wet Weight The drying procedure consisted of putting the specimens in the oven with a controlled temperature of 90° C. for 24 hrs. The specimens were separated into four tests: • 1. Group A: Three specimens were in this group. It served as a control group. The specimens were soaked in PBS (phosphate buffered saline) for 1 day and then the hydration analysis was performed. • 2. Group B1: Four specimens were in this group. In addition to the one day PBS soaking, the specimens soaked in PBS for 2 more days as a control and then the hydration analysis was performed. • Group B2: Five specimens were in this group. In addition to the one day PBS soaking, the specimens were soaked in 0.33% genipin solution for 2 days and then the hydration analysis was performed. • 3. In group C, a small daytime amount of constant compressive loading (creep) was simulated. • C1: Three specimens were in this group. The specimens were soaked in PBS for 3 days and then […] of compression was applied by a materials testing machine for 1 hour. The disc was compressed in a 5 degree of flexion posture produced by two rollers attached to the loading ram of the materials testing machine. The hydration analysis was performed immediately after the creep loading. • C2: Three specimens were in this group. The specimens were soaked in 0.33% Genipin solution for 2 days after 1 day of PBS soaking and performed identical creep loading with […] compressive load. The hydration analysis was performed immediately after the creep loading. • 4. In group D, the imbibition of water following a period of compressive loading that typically occurs in the night time as a person is in a recumbent posture was simulated. • D1: The specimens were soaked in PBS solution for 3 days and then 1 hr of creep loading at […] was applied. After the creep loading, the specimens were placed in a container in 1 PBS for one more day followed by the hydration analysis. • D2: Three specimens were included and were soaked in 0.33% genipin solution for 2 days after one day of PBS soaking. A creep load of […] for 1 hr was then applied. The specimens were put in PBS for another day followed by the hydration analysis.

The nature of data set [2]: physchem. The data set is classed as physicochemical. From the text:
In the case of crosslinking agents that are not very water-soluble, additional reagents may be required to maintain the solubility of the crosslinking agent. Such reagents should be miscible with water and function to increase the solubility of the crosslinking agent by reducing the hydrophilicity of the aqueous medium. […] At the upper limit, GP was soluble in 100% DMSO to a level of 2.6M. […] Thus manipulation of the buffer concentration and the addition of co-solvents allows for the manipulation of the crosslinking reagent concentration to the desired level. The values were all determined at ambient room temperature. Crosslinker solubility could also be increased by increasing the temperature of the solvent.

Data set [3] is described as follows: physchem. The following applies: for half-life: buffer. Type of data set: physicochemical. From the text:
In the case of the crosslinking agent genipin (GP), using a quantitative HPLC assay, the inventors have shown that the agent is unstable in aqueous solution. The rate of degradation can be very rapid and is dependent on pH. […] In all cases this instability is not suitable for long term storage of a genipin-containing crosslinking agent at ambient temperature. […] The inventors have also shown that GP is stable as a powder for at least 1 year. These observations have consequences for the manufacture and/or final form of a crosslinking reagent containing GP, i.e., the GP would have to be stored either in powdered form or in a suitable non-aqueous, water-miscible solvent. The solvent could be, but is not limited to, ethanol, methanol, propanol, acetonitrile or dimethyl sulfoxide.

Where [4] appears, read: combined fluid flow out (creep) and in (resoaking).

The source of these data is US8283322B2, “Formulations for nonsurgical exogenous crosslink therapy” (Orthopeutics, LP, priority 2008, dated 2012).

A word on the solubility: it is the concentration that dissolves in the medium under given conditions. In general, half-life refers to how long it takes for the measured level to halve.

Converted amounts (≈) assume the structure as drawn.

On to `COC(=O)C1=CO[C@@H](O)[C@@H]2C(CO)=CC[C@H]12` [Genipin, genipin], for which the “Genipin Flux, Inner AF” value in data set [1] (setting [4]) is on record as 0.1008. In addition, in data set [1] (setting [4]), the “Genipin Flux, NP” value is given as 0.04983. In addition, the “Genipin Flux, Outer AF” value in data set [1] (setting [4]) was 0.05294. The figures for the “% increase by Genipin, NP” value in data set [1] and in data set [1] (listed as genipin) were 63.7% and 64%, respectively. In data set [1] (flux vs control flux), the “% increase by Genipin, Inner AF” value was 17.3%. Further, the “% increase by Genipin, Outer AF” value in data set [1] (flux vs control flux) is listed as 5.7%. Also, the solubility was found to be 60.4 mM (≈ 13.7 mg/mL) in the data set “physchem [2]” (aqueous buffer); 74.6 mM (≈ 16.9 mg/mL) in “physchem [2]” (aqueous with cosolvent or surfactant or cyclodextrin); 2600 mM (≈ 588 mg/mL) in the data set “physchem [2]” (organic solvent or mixture); 39.6 mM (≈ 8.96 mg/mL) in the data set “physchem [2]” (pH 9, aqueous buffer); 63.3 mM (≈ 14.3 mg/mL) in “physchem [2]” (pH 9, aqueous with cosolvent or surfactant or cyclodextrin). The “degradation in non-aqueous solvents” value in “physchem [3]” is “no GP degradation was detected”. Besides, in “physchem [3]”, the “stability as a powder” value is on record as “at least 1 year”. For the same compound, the half-life in the data set “physchem [3]” (pH 4) was 214 h; in “physchem [3]” (pH 5), 219 h; in the data set “physchem [3]” (pH 6), 135 h; in the data set “physchem [3]” (pH 7), 60 h; in “physchem [3]” (pH 8), 18 h; in “physchem [3]” (pH 9) it was 2.8 h.
